Test results published in ChEMBL document CHEMBL1128915, “2-cyanopyrrolidides as potent, stable inhibitors of dipeptidyl peptidase IV” (Bioorg Med Chem Lett, 1996).

Test system: not listed separately
Experiment: Half-life in aqueous solution(pH 7.4).
Type: ADME

Question: Which half-life does the source give for `N#C[C@@H]1CCCN1C(=O)[C@@H](N)C1CCCCC1` here?
Answer: Its half-life is greater than 2880 min.

Question: With `CC[C@H](C)[C@H](N)C(=O)N1CCC[C@H]1C#N` as the compound, how does the half-life read?
Answer: The half-life was 2880 min.

Question: With `CC(C)(C)[C@H](N)C(=O)N1CCC[C@H]1C#N` as the compound, how does the half-life read?
Answer: The half-life was greater than 2880 min.

Question: With `N#C[C@@H]1CCCN1C(=O)[C@@H]1CCCN1` as the compound, how does the half-life read?
Answer: Its half-life is 450 min.

Question: With `N#C[C@@H]1CCCN1C(=O)[C@@H](N)CCCCN` as the compound, how does the half-life read?
Answer: Its half-life is 1440 min.

Question: For `C[C@H](N)C(=O)N1CCC[C@H]1B(O)O`, which half-life is on record?
Answer: The half-life was 30 min.

Question: Which half-life does the source give for `O=C([C@@H]1CCCN1)N1CCC[C@H]1B(O)O` here?
Answer: Its half-life is 90 min.

Target: Dipeptidyl peptidase 4 (Homo sapiens, UniProt P27487)
Sequence (P27487 whole entry): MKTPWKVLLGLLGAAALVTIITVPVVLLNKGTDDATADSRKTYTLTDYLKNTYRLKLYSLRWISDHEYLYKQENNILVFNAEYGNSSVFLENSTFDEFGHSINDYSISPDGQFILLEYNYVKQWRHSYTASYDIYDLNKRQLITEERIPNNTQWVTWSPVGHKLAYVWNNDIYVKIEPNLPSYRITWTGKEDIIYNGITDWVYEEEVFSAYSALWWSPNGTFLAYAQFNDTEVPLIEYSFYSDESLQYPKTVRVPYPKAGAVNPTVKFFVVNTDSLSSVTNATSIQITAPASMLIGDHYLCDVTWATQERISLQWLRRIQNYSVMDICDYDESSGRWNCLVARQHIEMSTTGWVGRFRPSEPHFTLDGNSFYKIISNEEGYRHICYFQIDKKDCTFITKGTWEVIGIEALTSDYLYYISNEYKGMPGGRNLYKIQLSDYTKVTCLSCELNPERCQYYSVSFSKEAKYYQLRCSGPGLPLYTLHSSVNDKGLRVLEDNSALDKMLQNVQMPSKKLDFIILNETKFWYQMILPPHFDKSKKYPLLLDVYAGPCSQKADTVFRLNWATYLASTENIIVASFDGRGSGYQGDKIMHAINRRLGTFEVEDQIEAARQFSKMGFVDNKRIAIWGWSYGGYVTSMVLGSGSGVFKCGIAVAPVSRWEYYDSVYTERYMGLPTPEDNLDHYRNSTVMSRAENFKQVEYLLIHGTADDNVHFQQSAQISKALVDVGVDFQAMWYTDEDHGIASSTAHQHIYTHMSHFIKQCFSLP
Experiment: In vitro test for inhibitory activity against human dipeptidyl peptidase IV.

Question: Which Ki does the source give for `NC(C(=O)N1CCCC1)C1CCCC1` (configuration not stated) here?
Answer: Its Ki is 210 nM.

Question: For `CC(C)(C)[C@H](N)C(=O)N1CCCC1`, which Ki is on record?
Answer: The Ki was 880 nM.

Question: With `O=C([C@H](CO)NCc1ccccc1)N1CCCC1` as the compound, how does the Ki read?
Answer: The Ki was 6000 nM.

Question: With `NCCCC[C@H](NC(=O)OCc1ccccc1)C(=O)N1CCCC1` as the compound, how does the Ki read?
Answer: The Ki was 520 nM.

Question: For `NCCC[C@H](NC(=O)OCc1ccccc1)C(=O)N1CCCC1`, which Ki is on record?
Answer: The Ki was 910 nM.

Question: With `CNC(C(=O)N1CCCC1)[C@H](C)O` (some centres not stated) as the compound, how does the Ki read?
Answer: Its Ki is 900 nM.

Question: For `N[C@@H](CCC(=O)OCc1ccccc1)C(=O)N1CCCC1`, which Ki is on record?
Answer: The Ki was 2700 nM.

Question: For `N[C@H](C(=O)N1CCCC1)c1ccccc1`, which Ki is on record?
Answer: The Ki was 5300 nM.

Question: For `CCCC[C@H](N)C(=O)N1CCCC1`, which Ki is on record?
Answer: Its Ki is 1200 nM.

Question: With `C[C@H](N)C(=O)N1CCCC1` as the compound, how does the Ki read?
Answer: The Ki was 7000 nM.

Question: With `N[C@@H](CCC(=O)O)C(=O)N1CCCC1` as the compound, how does the Ki read?
Answer: The Ki was 2000 nM.

Question: Which Ki does the source give for `C[C@@H](O)[C@H](N)C(=O)N1CCCC1` here?
Answer: Its Ki is 4900 nM.

Question: With `N#C[C@@H]1CCCN1C(=O)[C@@H](N)CCCCN` as the compound, how does the Ki read?
Answer: Its Ki is 5.2 nM.

Question: Which Ki does the source give for `N[C@@H](CC(=O)O)C(=O)N1CCCC1` here?
Answer: Its Ki is 14500 nM.

Question: For `O=C([C@@H]1CCCN1)N1CCC[C@H]1B(O)O`, which Ki is on record?
Answer: The Ki was 3 nM.
